In ChEMBL document CHEMBL3351345, “Design, synthesis, and structure-activity relationships of novel benzothiazole derivatives bearing the ortho-hydroxy N-carbamoylhydrazone moiety as potent antitumor agents” (Eur J Med Chem, 2014):

Experiments:
Caspase-3 = molecular target: T1, Caspase-3 (Homo sapiens, UniProt P42574); assay: Induction of procaspase 3 activity (unknown origin) using Ac-DEVD-pNa as substrate after 2 hrs
T1 sequence (P42574 whole entry): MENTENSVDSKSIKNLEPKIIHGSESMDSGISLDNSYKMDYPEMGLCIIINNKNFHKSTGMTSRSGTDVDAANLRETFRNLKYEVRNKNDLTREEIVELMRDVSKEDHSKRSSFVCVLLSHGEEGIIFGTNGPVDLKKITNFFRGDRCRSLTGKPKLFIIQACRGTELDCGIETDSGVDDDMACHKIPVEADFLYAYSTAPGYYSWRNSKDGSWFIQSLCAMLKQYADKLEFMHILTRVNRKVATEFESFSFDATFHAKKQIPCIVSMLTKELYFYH

NCI-H226 = assay: Antiproliferative activity against human NCI-H226 cells after 72 hrs by MTT assay; assay type: functional, cell-based; conditions: NCI-H226, 72 h
HT-29 = assay: Antiproliferative activity against human HT-29 cells after 72 hrs by MTT assay; assay type: functional, cell-based; conditions: HT-29, 72 h
SK-N-SH = assay: Antiproliferative activity against human SK-N-SH cells after 72 hrs by MTT assay; assay type: functional, cell-based
[1] = Antiproliferative activity against human MKN45 cells after 72 hrs by MTT assay; assay type: functional, cell-based; conditions: MKN-45, 72 h
MDA-MB-231 = assay: Antiproliferative activity against human MDA-MB-231 cells after 72 hrs by MTT assay; conditions: MDA-MB-231, 72 h
Caspase-3 (Homo sapiens) = molecular target: T2, Caspase-3 (Homo sapiens) (UniProt P42574); assay: Ratio of PAC1 EC50 to compound EC50 for procaspase 3 activity (unknown origin)
T2 sequence (whole entry): T1 sequence (P42574 whole entry)

Compound	EC50 (Caspase-3) [nM]	IC50 (NCI-H226) [nM]	IC50 (HT-29) [nM]	IC50 (SK-N-SH) [nM]	IC50 [1] [nM]	IC50 (MDA-MB-231) [nM]	Ratio EC50 (Caspase-3 (Homo sapiens))
C=CCc1cccc(/C=N/NC(=O)CN2CCN(Cc3ccccc3)CC2)c1O [PAC-1]	4080	1020	1360	3060	2610	4800	–
CCN(CC)Cc1ccc2nc(NC(=O)N/N=C/c3ccc(OCc4ccc(Cl)cc4Cl)cc3O)sc2c1	–	700	2430	1040	520	1520	–
CC1CCN(Cc2ccc3nc(NC(=O)N/N=C/c4ccc(OCc5csc(Cc6ccc7c(c6)OCO7)n5)cc4O)sc3c2)CC1	–	810	1120	1250	550	880	–
CCN(CC)Cc1ccc2nc(NC(=O)N/N=C/c3ccc(OCc4csc(Cc5ccc6c(c5)OCO6)n4)cc3O)sc2c1	250	140	720	480	510	550	16
O=C(N/N=C/c1ccccc1O)Nc1nc2ccc(CN3CCOCC3)cc2s1	–	2710	10300	7050	2340	12000	–
CC1CCN(Cc2ccc3nc(NC(=O)N/N=C/c4ccc(OCc5cccc(Cl)c5)cc4O)sc3c2)CC1	4260	360	1720	340	670	1120	–
CCN(CC)Cc1ccc2nc(NC(=O)N/N=C/c3ccc(OCc4ccccc4)cc3O)sc2c1	–	880	1440	1670	–	–	–
CCN(CC)Cc1ccc2nc(NC(=O)N/N=C/c3ccc(O)cc3O)sc2c1	–	5160	23700	6050	1740	4110	–
O=C(N/N=C/c1ccc(OCc2cccc(Cl)c2)cc1O)Nc1nc2ccc(N3CCOCC3)cc2s1	–	790	590	1480	280	1180	–
CCN(CC)Cc1ccc2nc(NC(=O)N/N=C/c3ccc(OCc4ccc(C)cc4)cc3O)sc2c1	–	1010	1330	1430	580	710	–
CCN(CC)Cc1ccc2nc(NC(=O)N/N=C/c3ccc(OCc4ccc(C(C)(C)C)cc4)cc3O)sc2c1	1420	160	770	480	500	980	2.9
CC1CCN(Cc2ccc3nc(NC(=O)N/N=C/c4ccc(O)cc4O)sc3c2)CC1	–	4610	2730	7740	4090	1660	–
CC1CCN(Cc2ccc3nc(NC(=O)N/N=C/c4ccc(OCc5ccccc5)cc4O)sc3c2)CC1	–	610	1570	1320	–	–	–
CN(C)Cc1ccc2nc(NC(=O)N/N=C/c3ccc(OCc4ccccc4Cl)cc3O)sc2c1	–	580	1610	2940	330	680	–
O=C(N/N=C/c1ccc(OCc2csc(Cc3ccc4c(c3)OCO4)n2)cc1O)Nc1nc2ccc(N3CCOCC3)cc2s1	–	2140	2310	6210	1010	4030	–
CC(C)(C)c1ccc(COc2ccc(/C=N/NC(=O)Nc3nc4ccc(N5CCOCC5)cc4s3)c(O)c2)cc1	18200	240	920	920	460	1040	–
O=C(N/N=C/c1ccccc1O)Nc1nc2ccc(N3CCOCC3)cc2s1	–	4260	67900	11700	9310	> 100000	–
CCN(CC)Cc1ccc2nc(NC(=O)N/N=C/c3ccccc3O)sc2c1	–	1810	4030	5790	1710	11300	–
CC1CCN(Cc2ccc3nc(NC(=O)N/N=C/c4ccc(OCc5ccc(C(C)(C)C)cc5)cc4O)sc3c2)CC1	2420	180	870	270	170	560	–

Compound	EC50 (Caspase-3) [nM]	IC50 (NCI-H226) [nM]	IC50 (HT-29) [nM]	IC50 (SK-N-SH) [nM]	IC50 [1] [nM]	IC50 (MDA-MB-231) [nM]	Ratio EC50 (Caspase-3 (Homo sapiens))
Cc1ccc(COc2ccc(/C=N/NC(=O)Nc3nc4ccc(N5CCOCC5)cc4s3)c(O)c2)cc1	–	530	1580	2510	750	19300	–
CCN(CC)Cc1ccc2nc(NC(=O)N/N=C/c3ccc(OCc4ccccc4Cl)cc3O)sc2c1	–	560	2230	2010	420	740	–
Cc1ccc(COc2ccc(/C=N/NC(=O)Nc3nc4ccc(CN(C)C)cc4s3)c(O)c2)cc1	–	1080	2130	2580	1270	2650	–
CN(C)Cc1ccc2nc(NC(=O)N/N=C/c3ccccc3O)sc2c1	–	2030	5960	5140	1540	5950	–
CC1CCN(Cc2ccc3nc(NC(=O)N/N=C/c4ccc(OCc5ccccc5Cl)cc4O)sc3c2)CC1	–	790	1030	850	760	2300	–
CC1CCN(Cc2ccc3nc(NC(=O)N/N=C/c4ccc(OCc5ccc(Cl)cc5Cl)cc4O)sc3c2)CC1	–	390	1000	1030	280	300	–
Cc1ccc(COc2ccc(/C=N/NC(=O)Nc3nc4ccc(CN5CCC(C)CC5)cc4s3)c(O)c2)cc1	–	1060	1040	1560	310	1510	–
CCN(CC)Cc1ccc2nc(NC(=O)N/N=C/c3ccc(OCc4cccc(Cl)c4)cc3O)sc2c1	–	1300	1880	1830	420	570	–
CN(C)Cc1ccc2nc(NC(=O)N/N=C/c3ccc(O)cc3O)sc2c1	–	2980	77900	14300	2850	> 100000	–
O=C(N/N=C/c1ccc(OCc2ccc(Cl)cc2)cc1O)Nc1nc2ccc(N3CCOCC3)cc2s1	–	260	1.8	1370	290	4460	–
CC1CCN(Cc2ccc3nc(NC(=O)N/N=C/c4ccc(OCc5ccc(Cl)cc5)cc4O)sc3c2)CC1	–	410	950	1060	210	880	–
CN(C)Cc1ccc2nc(NC(=O)N/N=C/c3ccc(OCc4ccc(C(C)(C)C)cc4)cc3O)sc2c1	–	830	1510	1660	1040	1140	–
CN(C)Cc1ccc2nc(NC(=O)N/N=C/c3ccc(OCc4ccc(Cl)cc4)cc3O)sc2c1	–	1170	2150	2740	700	600	–
O=C(N/N=C/c1ccc(OCc2ccc(Cl)cc2Cl)cc1O)Nc1nc2ccc(N3CCOCC3)cc2s1	–	1220	4720	3140	1750	15100	–
CCN(CC)Cc1ccc2nc(NC(=O)N/N=C/c3ccc(OCc4ccc(Cl)cc4)cc3O)sc2c1	4960	430	1020	740	540	610	–
CC1CCN(Cc2ccc3nc(NC(=O)N/N=C/c4ccccc4O)sc3c2)CC1	–	2960	10400	4360	680	12300	–
CN(C)Cc1ccc2nc(NC(=O)N/N=C/c3ccc(OCc4csc(Cc5ccc6c(c5)OCO6)n4)cc3O)sc2c1	–	720	1880	790	620	1040	–
CN(C)Cc1ccc2nc(NC(=O)N/N=C/c3ccc(OCc4cccc(Cl)c4)cc3O)sc2c1	–	360	2940	1190	190	540	–
